Reference: the supplement of paper PMC10307832

How the values were obtained:
Experiment in all cases: relative viability (nuclei count vs DMSO), 5 days (fraction); higher = more cells survive
[1] = compound: O=S(=O)(c1ccccc1)N(CC(F)(F)F)c1ccc(C(O)(C(F)(F)F)C(F)(F)F)cc1 + CC1(C)CCC(c2ccc(Cl)cc2)=C(CN2CCN(c3ccc(C(=O)NS(=O)(=O)c4ccc(N[C@H](CCN5CCOCC5)CSc5ccccc5)c(S(=O)(=O)C(F)(F)F)c4)cc3)CC2)C1 [Navitoclax] (partner 0.5 µM)
Outline: (§1)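 For relative viability, nuclei counts in treated wells were divided by those in vehicle wells. Lung cancer cell lines had been pin-tool dosed in 1536-well plates the day after seeding and cultured for 5 days, then fixed and stained in one step (final 0.05% Triton X-100, 1% formaldehyde, 1 ug/ml Hoechst) and imaged at 4×. Doses were one drug alone or a fixed anchor-drug dose plus five library-drug doses (not always all listed) in √10 steps, and values are duplicate-plate medians.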

[2] = compound: C1=CC2=C(C=CC(=C2)C=C3C(=O)NC(=NCC4=CC=CS4)S3)N=C1 [RO-3306] + Nc1nc2[nH]cc(CCc3ccc(C(=O)N[C@@H](CCC(=O)O)C(=O)O)cc3)c2c(=O)[nH]1 [Pemetrexed] (partner 0.2 µM)
Outline: as §1

[3] = compound: O=S(=O)(c1ccccc1)N(CC(F)(F)F)c1ccc(C(O)(C(F)(F)F)C(F)(F)F)cc1 + Nc1ncn([C@H]2C[C@H](O)[C@@H](CO)O2)c(=O)n1 [Decitabine] (partner 2 µM)
Outline: as §1

[4] = compound: O=S(=O)(c1ccccc1)N(CC(F)(F)F)c1ccc(C(O)(C(F)(F)F)C(F)(F)F)cc1 + CS(=O)(=O)N1CCN(Cc2cc3nc(-c4cccc5[nH]ncc45)nc(N4CCOCC4)c3s2)CC1 [Pictilisib] (partner 1 µM)
Outline: as §1

[5] = compound: O=S(=O)(c1ccccc1)N(CC(F)(F)F)c1ccc(C(O)(C(F)(F)F)C(F)(F)F)cc1 + C[C@@H](Oc1cc(-c2cnn(C3CCNCC3)c2)cnc1N)c1c(Cl)ccc(F)c1Cl [Crizotinib] (partner 1 µM)
Outline: as §1

[6] = compound: O=S(=O)(c1ccccc1)N(CC(F)(F)F)c1ccc(C(O)(C(F)(F)F)C(F)(F)F)cc1 + CC(C)C[C@H](NC(=O)[C@H](Cc1ccccc1)NC(=O)c1cnccn1)B(O)O [Bortezomib] (partner 0.002 µM)
Outline: as §1

Cell Line	relative viability ([1]; first compound 0.8 µM)	relative viability ([1]; first compound 2.53 µM)	relative viability ([1]; first compound 8 µM)	relative viability ([2]; first compound 0.01 µM)	relative viability ([2]; first compound 0.03162 µM)	relative viability ([2]; first compound 0.1 µM)	relative viability ([2]; first compound 0.3162 µM)	relative viability ([2]; first compound 1 µM)	relative viability ([3]; first compound 0.8 µM)	relative viability ([3]; first compound 2.53 µM)	relative viability ([3]; first compound 8 µM)	relative viability ([4]; first compound 0.8 µM)	relative viability ([4]; first compound 2.53 µM)	relative viability ([4]; first compound 8 µM)	relative viability ([5]; first compound 0.8 µM)	relative viability ([5]; first compound 2.53 µM)	relative viability ([5]; first compound 8 µM)	relative viability ([6]; first compound 0.8 µM)	relative viability ([6]; first compound 2.53 µM)	relative viability ([6]; first compound 8 µM)
SK-MES-1	1.42	1.33	1.21	1.14	1	0.981	0.968	0.938	0.375	0.337	0.366	0.25	0.235	0.271	1.02	1	0.903	–	–	–
H3255	0.537	0.64	0.503	0.506	0.501	0.547	0.57	0.57	0.567	0.473	0.642	0.492	0.51	0.396	0.755	0.776	0.829	0.564	0.708	0.761
NCI-H2087	1.03	0.942	0.916	0.678	0.677	0.636	0.652	0.648	0.305	0.327	0.301	0.868	0.993	0.848	1.11	0.841	0.918	0.915	0.82	0.793
NCI-H1666	0.756	0.882	0.99	0.94	0.798	0.819	0.836	0.868	0.697	0.661	0.684	0.434	0.418	0.398	0.96	0.795	0.82	0.948	0.696	0.685
SK-LU-1	1.18	0.865	0.56	1.03	0.918	0.963	0.949	0.897	0.669	0.63	0.703	0.531	0.454	0.594	1.06	0.748	0.736	1.09	1.04	1.38
NCI-H727	0.387	0.407	0.507	–	–	–	–	–	0.922	0.963	0.913	0.758	0.261	0.353	0.832	0.844	0.646	1.23	0.762	0.737
NCI-H1755	1.01	0.909	0.924	0.656	0.505	0.446	0.426	0.404	0.781	0.765	0.829	0.376	0.361	0.382	0.96	0.774	0.782	1.07	0.933	1.03
NCI-H1650	1.39	1.07	1.06	0.517	0.351	0.324	0.335	0.38	0.463	0.454	0.465	0.69	0.588	0.534	0.972	0.972	1.04	0.203	0.187	0.194
